Results published in US20260285850A1, “SUBSTITUTED OXAZOLIDINONES AND IMIDAZOLINONES AS HERBICIDES” (FMC CORPORATION, priority 2023, published 2026).

Key:
Format in all cases: in vivo
[1] = system: barnyardgrass (Echinochloa crus-galli); experiment: Test A preemergence soil spray, visual injury rating 0-100; details: 10 days
How it was run: (§1)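 Plants were grown in a loam soil-sand blend and treated with test chemical in a non-phytotoxic solvent mixture containing surfactant, either sprayed on soil preemergence or applied postemergence to 2-10 cm plants. After 10 days in a greenhouse, injury was scored visually against untreated controls, 0 meaning no effect and 100 complete control.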

[2] = system: blackgrass (Alopecurus myosuroides); experiment: as above; details: 10 days
How it was run: as §1

corn (Zea mays) [3] = experiment: as above; details: 10 days
How it was run: as §1

[4] = system: green foxtail (Setaria viridis); experiment: as above; details: 10 days
How it was run: as §1

kochia (Bassia scoparia) [5] = experiment: as above; details: 10 days
How it was run: as §1

[6] = system: oat, wild (wild oat, Avena fatua); experiment: as above; details: 10 days
How it was run: as §1

[7] = system: ragweed (common ragweed, Ambrosia artemisiifolia); experiment: as above; details: 10 days
How it was run: as §1

[8] = system: ryegrass, Italian (italian ryegrass, Lolium multiflorum); experiment: as above; details: 10 days
How it was run: as §1

soybean (Glycine max) [9] = experiment: as above; details: 10 days
How it was run: as §1

[10] = system: wheat (Triticum aestivum); experiment: as above; details: 10 days
How it was run: as §1

[11] = system: barnyardgrass (Echinochloa crus-galli); experiment: Test A postemergence application, visual injury rating 0-100
How it was run: as §1

[12] = system: blackgrass (Alopecurus myosuroides); experiment: as above
How it was run: as §1

corn (Zea mays) [13] = experiment: as above
How it was run: as §1

[14] = system: galium (catchweed bedstraw, Galium aparine); experiment: as above
How it was run: as §1

[15] = system: green foxtail (Setaria viridis); experiment: as above
How it was run: as §1

[16] = system: horseweed (Erigeron canadensis); experiment: as above
How it was run: as §1

kochia (Bassia scoparia) [17] = experiment: as above
How it was run: as §1

[18] = system: oat, wild (wild oat, Avena fatua); experiment: as above
How it was run: as §1

[19] = system: palmer (palmer amaranth, palmer pigweed, Amaranthus palmeri); experiment: as above
How it was run: as §1

[20] = system: ragweed (common ragweed, Ambrosia artemisiifolia); experiment: as above
How it was run: as §1

[21] = system: ryegrass, Italian (italian ryegrass, Lolium multiflorum); experiment: as above
How it was run: as §1

soybean (Glycine max) [22] = experiment: as above
How it was run: as §1

[23] = system: wheat (Triticum aestivum); experiment: as above
How it was run: as §1

[24] = system: barnyardgrass (Echinochloa crusgalli); experiment: Test B flooded paddy test, visual plant response rating 0-100; details: 250 g ai/ha, Flood, applied to paddy water, evaluated after 13 days
How it was run: (§2)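 Each species was raised to two leaves before flooding to a 3 cm depth and dosing the water with compound. Injury was assessed by eye after 13 days under greenhouse conditions.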

[25] = system: ducksalad (Heteranthera limosa); experiment: as above; details: 250 g ai/ha, Flood, applied to paddy water, evaluated after 13 days
How it was run: as §2

rice (Oryza sativa) = experiment: as above; details: 250 g ai/ha, Flood, applied to paddy water, evaluated after 13 days
How it was run: as §2

[26] = system: sedge, umbrella (small-flower umbrella sedge, Cyperus difformis); experiment: as above; details: 250 g ai/ha, Flood, applied to paddy water, evaluated after 13 days
How it was run: as §2

[27] = 62 g ai/ha, 0 = no effect, 100 = complete control
[28] = 62 g ai/ha, postemergence, 10 days, 0 = no effect, 100 = complete control
[29] = Postemergence, 16 g ai/ha, greenhouse 10 days, 0 no effect, 100 complete control

SMILES: CCOC(=O)C1=CCC(NC(=O)C2(C)CN(c3cc(F)cc(Cl)c3)C(=O)O2)C1 (centres unmarked) [Compound 134]
- Barnyardgrass plant response rating ([1]; 16 g ai/ha, 0 to 100 scale): 0
- Barnyardgrass plant response rating (0-100) [1, 27]: 0
- Blackgrass plant response rating ([2]; 16 g ai/ha, 0 to 100 scale): 0
- Blackgrass plant response rating (0-100) [2, 27]: 30
- Corn plant response rating (corn (Zea mays) [3]; 16 g ai/ha, 0 to 100 scale): 0
- Corn plant response rating (0-100) (corn (Zea mays) [3]; [27]): 0
- Foxtail, Green plant response rating ([4]; 16 g ai/ha, 0 to 100 scale): 0
- Foxtail, Green plant response rating (0-100) [4, 27]: 0
- Kochia plant response rating (kochia (Bassia scoparia) [5]; 16 g ai/ha, 0 to 100 scale): 0
- Kochia plant response rating (0-100) (kochia (Bassia scoparia) [5]; [27]): 0
- Oat, Wild plant response rating ([6]; 16 g ai/ha, 0 to 100 scale): 0
- Oat, Wild plant response rating (0-100) [6, 27]: 0
- Ragweed plant response rating ([7]; 16 g ai/ha, 0 to 100 scale): 0
- Ragweed plant response rating (0-100) [7, 27]: 0
- Ryegrass, Italian plant response rating ([8]; 16 g ai/ha, 0 to 100 scale): 0
- Ryegrass, Italian plant response rating (0-100) [8, 27]: 0
- Soybean plant response rating (soybean (Glycine max) [9]; 16 g ai/ha, 0 to 100 scale): 0
- Soybean plant response rating (0-100) (soybean (Glycine max) [9]; [27]): 0
- Wheat plant response rating ([10]; 16 g ai/ha, 0 to 100 scale): 0
- Wheat plant response rating (0-100) [10, 27]: 0
- Barnyardgrass plant response rating (0-100) [11, 28]: 0
- Barnyardgrass plant response rating (0 to 100 scale) [11, 29]: 0
- Blackgrass plant response rating (0-100) [12, 28]: 0
- Blackgrass plant response rating (0 to 100 scale) [12, 29]: 0
- Corn plant response rating (0-100) (corn (Zea mays) [13]; [28]): 0
- Corn plant response rating (0 to 100 scale) (corn (Zea mays) [13]; [29]): 0
- Galium plant response rating (0-100) [14, 28]: 0
- Galium plant response rating (0 to 100 scale) [14, 29]: 0
- Foxtail, Green plant response rating (0-100) [15, 28]: 0
- Foxtail, Green plant response rating (0 to 100 scale) [15, 29]: 0
- Horseweed plant response rating (0-100) [16, 28]: 0
- Horseweed plant response rating (0 to 100 scale) [16, 29]: 0
- Kochia plant response rating (0-100) (kochia (Bassia scoparia) [17]; [28]): 0
- Kochia plant response rating (0 to 100 scale) (kochia (Bassia scoparia) [17]; [29]): 0
- Oat, Wild plant response rating (0-100) [18, 28]: 0
- Oat, Wild plant response rating (0 to 100 scale) [18, 29]: 0
- Pigweed, Palmer plant response rating (0-100) [19, 28]: 0
- Pigweed, Palmer plant response rating (0 to 100 scale) [19, 29]: 0
- Ragweed plant response rating (0-100) [20, 28]: 0
- Ragweed plant response rating (0 to 100 scale) [20, 29]: 0
- Ryegrass, Italian plant response rating (0-100) [21, 28]: 0
- Ryegrass, Italian plant response rating (0 to 100 scale) [21, 29]: 0
- Soybean plant response rating (0-100) (soybean (Glycine max) [22]; [28]): 0
- Soybean plant response rating (0 to 100 scale) (soybean (Glycine max) [22]; [29]): 0
- Wheat plant response rating (0-100) [23, 28]: 0
- Wheat plant response rating (0 to 100 scale) [23, 29]: 0
- Plant response rating, Barnyardgrass (0 to 100 scale, 0 is no effect and 100 is complete control) [24]: 0
- Plant response rating, Ducksalad (0 to 100 scale, 0 is no effect and 100 is complete control) [25]: 0
- Plant response rating, Rice (0 to 100 scale, 0 is no effect and 100 is complete control) (rice (Oryza sativa)): 0
- Plant response rating, Sedge, Umbrella (0 to 100 scale, 0 is no effect and 100 is complete control) [26]: 0
